# Experimental data as given in patent US20180078615A1, “USE OF CCL2 TO INHIBIT ABNORMAL UTERINE BLEEDING” (UNIVERSITY OF SOUTH FLORIDA, priority 2015, published 2018).
# Entries after “also recorded” stand apart in the source; their conditions may differ.
# Key:
# VSMCs = assay: qRT-PCR of H19, TMEM119, RARRES1 and CCL2 mRNA in cultured VSMCs; type: cell-based, human; settings: vs control
# Method: VSMCs were thawed and cultured in medium 231 (M231; Life Technologies) with smooth muscle growth supplement (5% FBS; 2 ng/mL human basic fibroblast growth factor, 0.5 ng/mL human epidermal growth factor, 5 ng/mL heparin, 0.2 μg/mL insulin and 5 μg/mL BSA; Life Technologies) with 100 U/mL penicillin, 100 μg/mL streptomycin, 0.25 μg/mL fungizone. Confluent VSMCs were washed twice with 1×PBS to remove residual serum, passaged in 96-well or 6-well plates and incubated in parallel in M231 with 1% charcoal striped FBS with 0.1% ethanol (vehicle, control) or 10^−7 M MPA (Sigma-Aldrich) or 10^−7 M ETO (Organon) or 10^−7 M P4 (Sigma-Aldrich) for 15 min, 6, 48, and 72 h. VSMCs were then washed with ice-cold PBS and stored at −80° C. for further RNA and protein analyses.
# For qRT-PCR, 500 ng total RNA from each treatment was reverse transcribed by using RETROscript kit (Ambion). qRT-PCR was performed using the TaqMan Gene Expression Assay Kits for H19, TMEM119, RARRES1, and CCL2 (TaqMan ID # Hs00262142_g1, Hs01938722_m1, Hs00161204_m1 and Hs00234140_m1, respectively; Life Technologies) as described previously (36). Expression of the target mRNAs was normalized to β-actin levels, and the 2^−ΔΔCT was used to calculate relative expression levels.
# endometrial VSMCs = assay: αSMA and PCNA double-immunostaining of endometrium of oophorectomized guinea pigs (OVX-GPs); type: in vivo, guinea pig; settings: 21-d time-release pellets, mean±SEM
# Source text: After receiving written informed consent at New York University under Institutional Review Board approval, paraffin sections were derived from banked paired endometrial tissues obtained before and after Depo therapy by […] biopsy from each reproductive age woman with regular menstrual cycles during the secretory phase (n=6). Based on an established animal model for LAPC-induced AUB in humans (9), nulliparous adult female pigmented GPs (weighing 525-775 g) were used in experimental procedures conforming to National Health and Medical Research Council Guidelines of Australia and approved by the Animal Ethics Committee of The University of Western Australia. GPs (n=24) were subjected to bilateral OVX and given subcutaneous 21-d time-release pellets (Innovative Research of America) containing MPA (50 mg/d; n=6) or 17β-Estradiol (E2) (0.1 mg/d; n=6), both MPA and E2 (n=6), or no pellets (n=6). On day 20 of exposure to the pellets, GPs were killed with pentobarbital and uterine tissues fixed in 10% formalin and processed for paraffin embedding. In vitro experiments used aortic VSMCs from premenopausal women (n=2) (Life Technologies). Paraffin sections (5 μm) from paired pre- vs. post-Depo treated human or GP endometria were deparaffinized, boiled in citrate buffer (pH: 6.0) and then incubated in methanol containing 3% H2O2. Following 10% normal horse serum blocking (Vector Labs), slides were incubated overnight at 4° C. with mouse anti-PCNA monoclonal antibody (EMD Millipore). After several rinses in Tris-buffered saline containing 0.1% tween-20 (TBS-T; pH 7.6) slides were then incubated with biotinylated anti-mouse IgG (Vector Labs) for 30 min, then with a streptavidin-peroxidase complex (Elite ABC kit; Vector Labs) for 30 min and with diaminobenzidine (DAB; Vector Labs) for 3 min. […] Slides were counterstained by Hematoxylin and evaluated by histological scoring (HSCORE), as described previously (34). (See details for HSCORE evaluation for αSMA immunoreactivity and PCNA quantitation in SI Materials and Methods). Staining intensity for α-SMA was semiquantitatively evaluated by Q:1 HSCORE (1). […] An HSCORE value was determined for each specimen by using the formula HSCORE=ΣPi (i+1), where Pi is the percentage of stained cells in each intensity category (i.e., i=1, 2, or 3). Quantitation of PCNA immunostaining was determined by counting the number of PCNA^+ (brown) and PCNA^- cell nuclei (blue) in VSMCs (αSMA immunostained cells) and obtaining the ratio of numbers of PCNA^+ cell nuclei to total αSMA^+ cells. For each slide, three different fields were evaluated microscopically at 200× magnification. Slides were evaluated at different times by two investigators blinded to tissue source, and the average HSCORE or percentage of cells with PCNA^+ nuclei to total αSMA^+ cells used.
Structure (SMILES),CCL2 mRNA levels (VSMCs),H19 mRNA (VSMCs),RARRES1 mRNA (VSMCs),TMEM119 mRNA (VSMCs),"PCNA+ endometrial VSMCs (endometrial VSMCs; n=6, control 11.2%±2.3)","αSMA HSCORE (endometrial VSMCs; n=6, control 135.2±26.0)",CCL2 mRNA levels (VSMCs; listed as WA)
"C#C[C@]1(O)CC[C@H]2[C@@H]3CCC4=CC(=O)CC[C@@H]4[C@H]3C(=C)C[C@@]21CC [ETO, etonogestrel]",down-regulated; also recorded: significant inhibition,up-regulated,down-regulated,up-regulated,–,–,–
"CC(=O)O[C@]1(C(C)=O)CC[C@H]2[C@@H]3C[C@H](C)C4=CC(=O)CC[C@]4(C)[C@H]3CC[C@@]21C [MPA, medroxyprogesterone acetate]",significant inhibition,up-regulated,down-regulated,up-regulated,10.2%±2.8,83.50±9.0,down-regulated
